Species on record: Rattus norvegicus
Test: DrugMatrix - Regimen: Daily Repeat
Format: toxicity, organism-based, Sprague-Dawley
Design: regimen Daily Repeat, gender Male, age 6-8 weeks
Conditions: in vivo, po, route oral GAVAGE, […]; for ABSOLUTE BASOPHIL / ABSOLUTE EOSINOPHIL / ABSOLUTE LYMPHOCYTE / ABSOLUTE MONOCYTE / ABSOLUTE SEGMENTED NEUTROPHIL / BASOPHIL / EOSINOPHIL / ERYTHROCYTE COUNT / HEMATOCRIT / HEMOGLOBIN / LEUKOCYTE COUNT / LYMPHOCYTE / MEAN CORPUSCULAR HEMOGLOBIN / MEAN CORPUSCULAR HEMOGLOBIN CONCENTRATION / MEAN CORPUSCULAR VOLUME / MONOCYTE / NEUTROPHIL / NUCLEATED RED BLOOD CELLS / PLATELET COUNT: tissue Blood; for ALANINE AMINOTRANSFERASE / ALBUMIN / ALKALINE PHOSPHATASE / ASPARTATE AMINOTRANSFERASE / BLOOD UREA NITROGEN / CARBON DIOXIDE / CHLORIDE / CHOLESTEROL / CREATINE PHOSPHOKINASE / CREATININE / GLUCOSE / LACTATE DEHYDROGENASE / LIPASE / PHOSPHORUS / POTASSIUM / SODIUM / TOTAL BILIRUBIN / TOTAL PROTEIN / URIC ACID: tissue Plasma
[1] = 100 mg/kg, 120 h, dose level Low, time 5 day
[2] = 972 mg/kg, 72 h, dose level High, time 3 day
[3] = 972 mg/kg, 120 h, dose level High, time 5 day

`CC(=O)Nc1ccc(O)cc1` [ACETAMINOPHEN] was tested, and the “ABSOLUTE BASOPHIL” value [1] was 0 CELLS/uL, the “ABSOLUTE EOSINOPHIL” value [1] was 65 CELLS/uL and the “ABSOLUTE LYMPHOCYTE” value [1] was 8879.67 CELLS/uL. For the same compound, the “ABSOLUTE MONOCYTE” value [1] was 40.33 CELLS/uL, the “ABSOLUTE SEGMENTED NEUTROPHIL” value [1] was 548.33 CELLS/uL and the BASOPHIL [1] was 0%. For the same compound, the EOSINOPHIL [1] was 0.67%, the “ERYTHROCYTE COUNT” value [1] was 5.47 x10E6/uL and the HEMATOCRIT [1] was 34.53%. The HEMOGLOBIN [1] was 13.27 G/DL, the “LEUKOCYTE COUNT” value [1] was 9.53 x10E3/uL and the LYMPHOCYTE [1] was 93.67%. The “MEAN CORPUSCULAR HEMOGLOBIN” value [1] was 24.27 pg, the “MEAN CORPUSCULAR HEMOGLOBIN CONCENTRATION” value [1] was 38.43 G/DL and the “MEAN CORPUSCULAR VOLUME” value [1] was 63.13 fL. The MONOCYTE [1] was 0.33%, the NEUTROPHIL [1] was 5.33% and the “NUCLEATED RED BLOOD CELLS” value [1] was 0 /100WBC. The “PLATELET COUNT” value [1] was 1237.33 x10E3/uL, the “ALANINE AMINOTRANSFERASE” value [1] was 58.33 u/L and the ALBUMIN [1] was 4.3 G/DL. For the same compound, the “ALKALINE PHOSPHATASE” value [1] was 341.67 u/L, the “ASPARTATE AMINOTRANSFERASE” value [1] was 84 u/L and the “BLOOD UREA NITROGEN” value [1] was 14 mg/dL. For the same compound, the “CARBON DIOXIDE” value [1] was 27.33 mmol/L, the CHLORIDE [1] was 98.33 MEQ/L and the CHOLESTEROL [1] was 81.33 mg/dL. For the same compound, the “CREATINE PHOSPHOKINASE” value [1] was 273 u/L, the CREATININE [1] was 0.18 mg/dL and the GLUCOSE [1] was 158.67 mg/dL. The “LACTATE DEHYDROGENASE” value [1] was 79.67 u/L, the LIPASE [1] was 10 u/L and the PHOSPHORUS [1] was 9.17 mg/dL. The POTASSIUM [1] was 5.75 MEQ/L, the SODIUM [1] was 143.87 MEQ/L and the “TOTAL BILIRUBIN” value [1] was 0.23 mg/dL. For the same compound, the “TOTAL PROTEIN” value [1] was 6.27 G/DL, the “URIC ACID” value [1] was 0.77 mg/dL and the “ABSOLUTE BASOPHIL” value [2] was 0 CELLS/uL. For the same compound, the “ABSOLUTE EOSINOPHIL” value [2] was 0 CELLS/uL, the “ABSOLUTE LYMPHOCYTE” value [2] was 8609 CELLS/uL and the “ABSOLUTE MONOCYTE” value [2] was 158.2 CELLS/uL. The “ABSOLUTE SEGMENTED NEUTROPHIL” value [2] was 1212.8 CELLS/uL, the BASOPHIL [2] was 0% and the EOSINOPHIL [2] was 0%. The “ERYTHROCYTE COUNT” value [2] was 5.94 x10E6/uL, the HEMATOCRIT [2] was 36.4% and the HEMOGLOBIN [2] was 13.62 G/DL. The “LEUKOCYTE COUNT” value [2] was 9.98 x10E3/uL, the LYMPHOCYTE [2] was 85.6% and the “MEAN CORPUSCULAR HEMOGLOBIN” value [2] was 22.9 pg. For the same compound, the “MEAN CORPUSCULAR HEMOGLOBIN CONCENTRATION” value [2] was 37.44 G/DL, the “MEAN CORPUSCULAR VOLUME” value [2] was 61.28 fL and the MONOCYTE [2] was 2%. The NEUTROPHIL [2] was 12.4%, the “NUCLEATED RED BLOOD CELLS” value [2] was 0 /100WBC and the “PLATELET COUNT” value [2] was 1006.4 x10E3/uL. For the same compound, the “ALANINE AMINOTRANSFERASE” value [2] was 85 u/L, the ALBUMIN [2] was 4.4 G/DL and the “ALKALINE PHOSPHATASE” value [2] was 536.6 u/L. For the same compound, the “ASPARTATE AMINOTRANSFERASE” value [2] was 123.8 u/L, the “BLOOD UREA NITROGEN” value [2] was 14 mg/dL and the “CARBON DIOXIDE” value [2] was 31.2 mmol/L. The CHLORIDE [2] was 99.67 MEQ/L, the CHOLESTEROL [2] was 76.2 mg/dL and the “CREATINE PHOSPHOKINASE” value [2] was 298.8 u/L. For the same compound, the CREATININE [2] was 0.19 mg/dL, the GLUCOSE [2] was 161 mg/dL and the “LACTATE DEHYDROGENASE” value [2] was 128 u/L. For the same compound, the LIPASE [2] was 10.8 u/L, the PHOSPHORUS [2] was 10.82 mg/dL and the POTASSIUM [2] was 5.81 MEQ/L. For the same compound, the SODIUM [2] was 143.6 MEQ/L, the “TOTAL BILIRUBIN” value [2] was 0.14 mg/dL and the “TOTAL PROTEIN” value [2] was 6.04 G/DL. The “URIC ACID” value [2] was 0.68 mg/dL, the “ABSOLUTE BASOPHIL” value [3] was 0 CELLS/uL and the “ABSOLUTE EOSINOPHIL” value [3] was 17.8 CELLS/uL. The “ABSOLUTE LYMPHOCYTE” value [3] was 10212.2 CELLS/uL, the “ABSOLUTE MONOCYTE” value [3] was 135.4 CELLS/uL and the “ABSOLUTE SEGMENTED NEUTROPHIL” value [3] was 1674.6 CELLS/uL. The BASOPHIL [3] was 0%, the EOSINOPHIL [3] was 0.2% and the “ERYTHROCYTE COUNT” value [3] was 6.63 x10E6/uL. The HEMATOCRIT [3] was 40.4%, the HEMOGLOBIN [3] was 14.86 G/DL and the “LEUKOCYTE COUNT” value [3] was 12.04 x10E3/uL. For the same compound, the LYMPHOCYTE [3] was 85.2%, the “MEAN CORPUSCULAR HEMOGLOBIN” value [3] was 22.46 pg and the “MEAN CORPUSCULAR HEMOGLOBIN CONCENTRATION” value [3] was 36.82 G/DL. The “MEAN CORPUSCULAR VOLUME” value [3] was 61 fL, the MONOCYTE [3] was 1.2% and the NEUTROPHIL [3] was 13.4%. The “NUCLEATED RED BLOOD CELLS” value [3] was 0 /100WBC, the “PLATELET COUNT” value [3] was 1437.6 x10E3/uL and the “ALANINE AMINOTRANSFERASE” value [3] was 100 u/L. For the same compound, the ALBUMIN [3] was 4.46 G/DL, the “ALKALINE PHOSPHATASE” value [3] was 485.6 u/L and the “ASPARTATE AMINOTRANSFERASE” value [3] was 108.4 u/L. The “BLOOD UREA NITROGEN” value [3] was 14.2 mg/dL, the “CARBON DIOXIDE” value [3] was 29 mmol/L and the CHLORIDE [3] was 104 MEQ/L. The CHOLESTEROL [3] was 71.6 mg/dL, the “CREATINE PHOSPHOKINASE” value [3] was 328.8 u/L and the CREATININE [3] was 0.17 mg/dL. The GLUCOSE [3] was 154 mg/dL, the “LACTATE DEHYDROGENASE” value [3] was 199.2 u/L and the LIPASE [3] was 9.8 u/L. The PHOSPHORUS [3] was 13.5 mg/dL, the POTASSIUM [3] was 6.73 MEQ/L and the SODIUM [3] was 144.74 MEQ/L. The “TOTAL BILIRUBIN” value [3] was 0.22 mg/dL, the “TOTAL PROTEIN” value [3] was 6.42 G/DL and the “URIC ACID” value [3] was 3.3 mg/dL.

— ChEMBL document CHEMBL3885881, “DrugMatrix”
